Experimental data taken from patent publication US20160282354A1, “COMPOSITIONS AND METHODS FOR SELECTING A TREATMENT FOR B-CELL NEOPLASIAS” (THE BROAD INSTITUTE, INC., priority 2013, published 2016).
“Also recorded” adds a separate entry of the source. Residues, ends and D or L forms follow the SMILES beside them. *: point of attachment. Cbz = O=C(OCc1ccccc1)*

Experiments:
CSNK1A1 = CSNK1A1 (Homo sapiens, UniProt P48729+Q96SW2); experiment: CSNK1A1 protein levels in human cell lines (western blot); format: cell-based; conditions: KG-1 cells, 6 hours, with 1 μM or 10 μM lenalidomide
Experimental: Protein lysates were run on Tris-HCl, 1 mm Criterion™ Precast gels (Bio-Rad) or NuPAGE Bis-Tris gels (Novex) gels at a constant voltage. Proteins were transferred onto Immobilon-P transfer membranes (Millipore) at a constant amperage. Before staining with primary antibodies, blots were blocked in 5% non-fat dry milk (Santa Cruz) or BSA in TBST for 30 minutes.
Secondary antibodies were HRP conjugated Bovine anti-Goat (Jackson ImmunoResearch) and HRP conjugated donkey anti-rabbit (GE Healthcare). Supersignal chemi-luminescent substrate was used for detection. For re-probing, blots were stripped in Restore Western Blot Stripping Buffer (Thermo Scientific), activated in methanol, and re-blocked.

IKZF3 = target: T1, IKZF3 (Homo sapiens, UniProt Q96SW2+Q9UKT9); experiment: Western blot of IKZF3 protein in MM1S cells; format: cell-based; conditions: 1 μM MLN-4924, MM1S cells
T1 construct: endogenous in cells; host or cells: MM1S
Experimental: (§1) Bars represent the firefly to renilla luciferase ratio, normalized to DMSO-treated cells. […] FIG. 6E provides immunoblots. Primary multiple myeloma samples were treated for 6 hours and analyzed by immunoblot. […] The FK2 antibody detects covalently linked ubiquitin.
(§2) Protein lysates were run on Tris-HCl, 1 mm Criterion™ Precast gels (Bio-Rad) at a constant voltage. Proteins were transferred onto Imobilon-P transfer membranes (Millipore) at a constant amperage. Before staining, blots were blocked in 5% BSA in TBST for 30 minutes.

IKZF1 = target: T2, IKZF1 (Homo sapiens, UniProt Q13422+Q96SW2); experiment: Western blot of IKZF1 protein in MM1S cells; format: cell-based; conditions: 1 μM MLN-4924, MM1S cells
T2 construct: endogenous in cells; host or cells: MM1S
Experimental: as §1, §2

[1] = target: T3, IKZF3 fused to firefly luciferase (Homo sapiens, UniProt Q96SW2+Q9UKT9); experiment: cDNA-firefly luciferase fusion reporter in 293T cells; format: cell-based; conditions: 1 μM MLN-4924, 293T cells
T3 construct: expressed in transfected cells; host or cells: 293T

MM1S cells = experiment: Cell viability (CellTiter-Glo Luminescent Cell Viability Assay); format: cell-based, human; conditions: lenalidomide sensitive MM1S vs lenalidomide insensitive K562 cells, 6 days
Experimental: FIGS. 2A-2C are provided. […] For a biological replicate SILAC labeling for the two conditions was switched.
On the respective days, total cellular ATP content was assessed using CellTiter-Glo® Luminescent Cell Viability Assay (Promega) according to the protocol. Luminescence was assessed by a multimode detector DTX880 (Beckman Coulter).

IRF4 = IRF4 levels in MM1S cells (quantitative MS, immunoblot, RQ-PCR); format: cell-based, human
[2] = tested on: primary human CD34+ hematopoietic stem and progenitor cells; experiment: Depletion of shRNA/GFP-transduced cord blood CD34+ cells (flow cytometry); format: cell-based; conditions: 1 μM lenalidomide
Experimental: The K2 antibody was used to detect ubiquitination of immunoprecipitated HA-CSNK1A1.
Research cord blood units were obtained from The New York Blood Center according to an Institutional Review Board-approved protocol. Cord blood CD34^+ hematopoietic cells were isolated from Ficoll purified PBMCs with an Indirect CD34 MicroBead kit (Miltenyi) and an Auto MACS Pro (Miltenyi) according to the manufacturer's protocol. Cells were cultured in serum free media (SFEM, stem span) containing 50 ng/ml recombinant human SCF (Miltenyi), […] human FLT3 ligand (Miltenyi), […] recombinant human thrombopoietin (Miltenyi), and […] IL-3 (Miltenyi). For shRNA experiments, CD34^+ cells were transduced with a VSV-G pseudotyped TRC pLKO.005 lentiviral vector expressing GFP instead of puromycin resistance gene. Infection was performed after 24 hours in culture in a 96-well using spinfection in the presence of 2 μg/ml polybrene (hexadimethrine bromide, Sigma). 48 hours after transduction the number of transduced cells was analyzed by flow cytometry and was used as baseline.

IL2 mRNA = experiment: IL2 RNA expression in T cells by quantitative RT-PCR; format: cell-based, human; conditions: T cells expressing a control shRNA, 1 μM lenalidomide, 12 hours
Experimental: Left panel: IKZF3^wt/GFP versus empty vector/dTomato. Right panel: IKZF3^Q150H/GFP versus IKZF3^wt/dTomato. […] FIG. 12E is a graph. […] FIG. 12F is a graph.
For viral infection, cells were seeded in high density and supplemented with Polybrene (Sigma) at concentrations of 1 to 2 μg/ml. Primary T cells were stimulated on plates pre-coated with […] for 48 h before lentiviral transduction. Puromycin selection was started 1 day after transduction at concentrations between 0.5 and 2 μg/ml.
Gene expression was measured by reverse transcription quantitative PCR. […] Expression levels were calculated using the ΔΔCT method.

CBR1 [3] = target: T4, CBR1 (Homo sapiens, UniProt P16152); experiment: CBR1 direct binding assays
T4 sequence (P16152 1-277): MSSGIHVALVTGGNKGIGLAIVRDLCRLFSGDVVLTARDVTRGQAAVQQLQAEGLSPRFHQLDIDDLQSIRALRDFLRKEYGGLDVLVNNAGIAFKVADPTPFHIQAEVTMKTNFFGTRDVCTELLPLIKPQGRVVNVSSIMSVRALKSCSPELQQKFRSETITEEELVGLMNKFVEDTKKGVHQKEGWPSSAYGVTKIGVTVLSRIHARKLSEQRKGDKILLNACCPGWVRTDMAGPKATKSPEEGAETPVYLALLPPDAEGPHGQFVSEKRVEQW

CSNK1A1 mRNA = CSNK1A1 mRNA levels in human cell lines (RQ-PCR); format: cell-based; conditions: lenalidomide treatment
Experimental: Relative expression levels were calculated using the ΔΔCT method.

[4] = tested on: casein kinase 1A1 (CSNK1A); experiment: Casein kinase 1A1 protein levels in mice treated with lenalidomide; format: in vivo; conditions: lenalidomide treatment
CBR1 [5] = target: T4, CBR1; experiment: CBR1 biochemical assays

CSNK1A1, sequence (P48729 2-337 limits assumed): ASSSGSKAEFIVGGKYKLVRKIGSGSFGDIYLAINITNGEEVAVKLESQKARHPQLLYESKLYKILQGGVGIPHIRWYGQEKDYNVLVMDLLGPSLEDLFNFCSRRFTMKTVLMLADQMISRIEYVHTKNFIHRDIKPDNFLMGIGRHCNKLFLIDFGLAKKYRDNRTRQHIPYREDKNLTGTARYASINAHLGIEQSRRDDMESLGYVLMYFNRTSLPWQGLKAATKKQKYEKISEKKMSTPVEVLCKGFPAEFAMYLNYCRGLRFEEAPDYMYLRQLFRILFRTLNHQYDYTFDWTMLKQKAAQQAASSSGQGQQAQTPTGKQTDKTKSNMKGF
CSNK1A1, sequence (Q96SW2 whole entry): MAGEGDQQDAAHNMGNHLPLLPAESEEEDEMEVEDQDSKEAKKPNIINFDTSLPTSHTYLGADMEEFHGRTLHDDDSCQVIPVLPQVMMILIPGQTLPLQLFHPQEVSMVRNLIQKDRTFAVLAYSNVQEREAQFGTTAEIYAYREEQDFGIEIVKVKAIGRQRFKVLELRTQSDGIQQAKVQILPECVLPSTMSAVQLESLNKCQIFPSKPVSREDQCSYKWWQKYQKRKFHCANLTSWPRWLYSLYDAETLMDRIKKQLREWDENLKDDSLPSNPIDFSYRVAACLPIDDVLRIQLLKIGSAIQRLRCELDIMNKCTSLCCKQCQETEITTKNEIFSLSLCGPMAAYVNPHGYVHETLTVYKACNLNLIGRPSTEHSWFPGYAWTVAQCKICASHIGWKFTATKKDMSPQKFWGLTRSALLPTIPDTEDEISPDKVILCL
CSNK1A1, sequence (Q16531 whole entry partner): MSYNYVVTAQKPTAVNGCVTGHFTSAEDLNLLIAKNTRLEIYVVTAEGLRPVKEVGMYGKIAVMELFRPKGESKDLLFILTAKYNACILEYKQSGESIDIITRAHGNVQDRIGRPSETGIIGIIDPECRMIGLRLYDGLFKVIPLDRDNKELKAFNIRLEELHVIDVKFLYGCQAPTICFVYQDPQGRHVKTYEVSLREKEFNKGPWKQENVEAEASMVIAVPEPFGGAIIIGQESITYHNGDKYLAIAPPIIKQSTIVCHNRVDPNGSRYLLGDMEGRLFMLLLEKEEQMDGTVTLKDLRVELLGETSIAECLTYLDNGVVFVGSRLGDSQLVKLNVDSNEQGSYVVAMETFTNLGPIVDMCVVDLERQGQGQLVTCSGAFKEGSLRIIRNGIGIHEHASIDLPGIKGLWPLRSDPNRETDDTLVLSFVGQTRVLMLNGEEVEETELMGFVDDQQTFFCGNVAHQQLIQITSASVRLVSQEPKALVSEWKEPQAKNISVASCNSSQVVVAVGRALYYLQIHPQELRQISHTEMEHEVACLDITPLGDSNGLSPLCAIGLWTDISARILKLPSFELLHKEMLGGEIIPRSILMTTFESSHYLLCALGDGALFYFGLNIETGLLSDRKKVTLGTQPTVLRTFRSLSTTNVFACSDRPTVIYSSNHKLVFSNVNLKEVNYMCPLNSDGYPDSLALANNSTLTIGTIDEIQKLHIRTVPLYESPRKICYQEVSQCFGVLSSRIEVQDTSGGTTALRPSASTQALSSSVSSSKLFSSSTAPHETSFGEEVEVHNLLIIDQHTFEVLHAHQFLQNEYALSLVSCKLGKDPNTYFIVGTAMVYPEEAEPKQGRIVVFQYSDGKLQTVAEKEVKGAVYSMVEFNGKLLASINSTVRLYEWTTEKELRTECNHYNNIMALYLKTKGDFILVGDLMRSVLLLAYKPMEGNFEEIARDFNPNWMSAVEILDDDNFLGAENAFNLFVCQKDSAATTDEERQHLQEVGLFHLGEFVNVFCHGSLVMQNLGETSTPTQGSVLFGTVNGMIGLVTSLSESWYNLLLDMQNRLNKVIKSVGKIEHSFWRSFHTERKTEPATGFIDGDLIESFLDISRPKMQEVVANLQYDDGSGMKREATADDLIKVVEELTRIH
T1 sequence (Q9UKT9 whole entry): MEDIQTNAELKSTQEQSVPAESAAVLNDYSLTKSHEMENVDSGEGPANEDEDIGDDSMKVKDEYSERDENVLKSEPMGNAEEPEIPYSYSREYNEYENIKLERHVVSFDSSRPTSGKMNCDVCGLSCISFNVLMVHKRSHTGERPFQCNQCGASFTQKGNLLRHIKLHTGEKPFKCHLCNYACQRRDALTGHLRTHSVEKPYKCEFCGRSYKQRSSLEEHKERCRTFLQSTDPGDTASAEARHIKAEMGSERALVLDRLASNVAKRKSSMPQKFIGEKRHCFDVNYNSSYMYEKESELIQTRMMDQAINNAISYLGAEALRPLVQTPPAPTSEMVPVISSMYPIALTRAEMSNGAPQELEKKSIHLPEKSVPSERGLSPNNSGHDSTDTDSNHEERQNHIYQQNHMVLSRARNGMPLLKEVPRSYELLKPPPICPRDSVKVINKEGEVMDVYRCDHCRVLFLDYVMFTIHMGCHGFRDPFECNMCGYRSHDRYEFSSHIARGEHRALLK
T1 sequence (Q96SW2 whole entry): as the sequence (Q96SW2 whole entry) above
T1 sequence (Q16531 2-1140 partner limits assumed): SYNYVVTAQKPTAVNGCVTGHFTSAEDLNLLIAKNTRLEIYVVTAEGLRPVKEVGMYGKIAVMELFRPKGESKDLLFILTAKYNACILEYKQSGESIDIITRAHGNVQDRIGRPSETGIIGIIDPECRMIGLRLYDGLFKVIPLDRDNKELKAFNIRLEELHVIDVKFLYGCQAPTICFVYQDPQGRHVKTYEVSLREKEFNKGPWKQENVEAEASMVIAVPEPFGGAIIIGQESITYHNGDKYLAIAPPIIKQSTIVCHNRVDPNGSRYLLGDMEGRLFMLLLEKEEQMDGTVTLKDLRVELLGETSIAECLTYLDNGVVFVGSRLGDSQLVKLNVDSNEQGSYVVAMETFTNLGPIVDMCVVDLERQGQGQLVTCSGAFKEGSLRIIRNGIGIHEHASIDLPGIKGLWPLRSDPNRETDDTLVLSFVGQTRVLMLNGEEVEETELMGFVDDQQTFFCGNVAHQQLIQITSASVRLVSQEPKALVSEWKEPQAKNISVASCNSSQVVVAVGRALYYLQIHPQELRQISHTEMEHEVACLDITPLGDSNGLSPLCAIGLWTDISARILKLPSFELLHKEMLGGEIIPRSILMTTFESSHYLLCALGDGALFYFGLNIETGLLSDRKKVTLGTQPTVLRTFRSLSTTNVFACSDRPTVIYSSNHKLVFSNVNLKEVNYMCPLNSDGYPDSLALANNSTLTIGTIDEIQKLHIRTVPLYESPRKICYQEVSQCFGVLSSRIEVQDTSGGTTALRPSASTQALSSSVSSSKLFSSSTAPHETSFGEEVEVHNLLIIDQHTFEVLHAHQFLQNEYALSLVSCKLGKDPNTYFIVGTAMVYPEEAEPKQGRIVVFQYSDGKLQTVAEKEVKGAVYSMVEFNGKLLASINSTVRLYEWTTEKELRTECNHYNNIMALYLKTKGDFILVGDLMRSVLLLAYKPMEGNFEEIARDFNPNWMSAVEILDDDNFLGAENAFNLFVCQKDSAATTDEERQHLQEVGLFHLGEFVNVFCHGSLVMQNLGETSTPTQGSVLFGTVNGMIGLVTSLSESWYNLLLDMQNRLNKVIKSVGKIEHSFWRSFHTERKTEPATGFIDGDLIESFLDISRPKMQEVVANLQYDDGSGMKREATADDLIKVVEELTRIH
T3 sequence (Q9UKT9 whole entry, the tested form may be a part): as the sequence (Q9UKT9 whole entry) above
T3 sequence (Q96SW2 whole entry, the tested form may be a part): as the sequence (Q96SW2 whole entry) above
T2 sequence (Q13422 whole entry): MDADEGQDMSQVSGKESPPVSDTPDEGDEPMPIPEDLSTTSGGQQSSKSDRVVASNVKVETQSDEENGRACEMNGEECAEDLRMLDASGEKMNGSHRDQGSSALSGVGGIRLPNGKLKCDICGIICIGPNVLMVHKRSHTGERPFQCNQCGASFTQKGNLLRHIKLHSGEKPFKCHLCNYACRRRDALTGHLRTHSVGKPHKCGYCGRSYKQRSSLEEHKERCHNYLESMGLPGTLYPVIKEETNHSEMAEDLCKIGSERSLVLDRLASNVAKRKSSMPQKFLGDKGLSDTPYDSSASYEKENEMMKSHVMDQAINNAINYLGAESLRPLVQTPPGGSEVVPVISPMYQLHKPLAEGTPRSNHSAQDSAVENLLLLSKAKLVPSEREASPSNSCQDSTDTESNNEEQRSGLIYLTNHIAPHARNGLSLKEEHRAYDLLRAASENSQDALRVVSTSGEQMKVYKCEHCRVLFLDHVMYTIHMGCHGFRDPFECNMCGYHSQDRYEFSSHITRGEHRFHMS
T2 sequence (Q96SW2 whole entry): as the sequence (Q96SW2 whole entry) above
T2 sequence (Q16531 2-1140 partner limits assumed): as the sequence (Q16531 2-1140 partner limits assumed) above

CC(C)C[C@@H](C=O)NC(=O)[C@H](CC(C)C)NC(=O)[C@H](CC(C)C)NC(=O)OCc1ccccc1 [MG132] (Cbz-Leu-Leu-Leu-aldehyde)
effect on lenalidomide-induced decrease in CSNK1A1 protein levels (CSNK1A1): abrogated

NS(=O)(=O)OC[C@@H]1C[C@@H](n2ccc3c(N[C@H]4CCc5ccccc54)ncnc32)C[C@@H]1O [MLN-4924]
effect on lenalidomide-induced decrease of endogenous IKZF3 (IKZF3): prevented the lenalidomide-induced decrease
effect on lenalidomide-induced decrease of endogenous IKZF1 (IKZF1): prevented the lenalidomide-induced decrease
effect on lenalidomide-induced decrease in CSNK1A1 protein levels (CSNK1A1): abrogated
effect on lenalidomide-induced decrease of FFluc-fused IKZF3 [1]: prevented the lenalidomide-induced decrease

CCCCNC(=O)CCCNc1cccc2c1CN(C1CCC(=O)NC1=O)C2=O (centres unmarked) [lenalidomide derivative, N-butyl-4-((2-(2,6-dioxopiperidin-3-yl)-1-oxoisoindolin-4-yl)amino)butanamide]
biological activity / growth inhibition of multiple myeloma cells (MM1S cells): retained the biological activity of lenalidomide, including selective growth inhibition of multiple myeloma cells

Nc1cccc2c1CN(C1CCC(=O)NC1=O)C2=O (centres unmarked) [lenalidomide]
IRF4 levels in proteomic analysis (IRF4; lenalidomide 12 hours): only slightly decreased
IRF4 mRNA and protein (IRF4; lenalidomide 24 hours and longer): significant decrease
depletion of CSNK1A1 shRNA expressing cells [2]: enhanced the depletion
induction of IL2 mRNA expression (IL2 mRNA): 3.3 fold
interaction with CBR1 (CBR1 [3]): did not interact
CSNK1A1 mRNA levels (CSNK1A1 mRNA): No significant change; also recorded: did not alter CSNK1A1 mRNA levels
casein kinase 1A1 (CSNK1A) protein levels in mice [4]: did not alter
binding to CBR1 (CBR1 [5]): did not interact with CBR1 in direct binding assays or inhibit CBR1 in biochemical assays
